A short description of the series: Pharmacokinetic parameters after oral gavage in Sprague Dawley rats. Conditions: rat, 10 mg/kg. The series is classed as in vivo, male Sprague Dawley rats. Here is the method: The in vivo pharmacokinetic parameters of mesoporous silica (AMS-6) loaded with probucol (34.8 wt %) prepared according to the procedure as described in Example 1, were obtained after oral gavage to male Sprague Dawley rats at a dose of 10 mg/kg. Crystalline probucol (PB) was administered in comparison. […] Further, the maximum concentration of probucol after administration of silica loaded with probucol is approximately 10 times higher than when crystalline probucol is administered.

As usually defined, the AUC(0-inf) is total exposure, with the tail of the curve extrapolated. Higher therefore signals high exposure. As usually defined, the Cmax is the maximum level reached in the sampled fluid or tissue. One may read the Tmax as the time at which the peak concentration occurs. The term half-life denotes the time in which the quantity being followed falls by half. A high value points to slow loss. Regarding `CC(C)(Sc1cc(C(C)(C)C)c(O)c(C(C)(C)C)c1)Sc1cc(C(C)(C)C)c(O)c(C(C)(C)C)c1` [PB, Probucol], the Tlast amounted to 24 h. In addition, under “male, Sprague Dawley, plasma”, the AUC(0-inf) turned out to be 859 ng·h/mL, the Cmax stood at 30.9 ng/mL, the Tmax was determined as 8 h and the half-life was 19.6 h. For the setting “male, Sprague Dawley, plasma, read-out: AUC0-24”, the AUC(0-t) came out at 492 ng·h/mL.

The values are drawn from US20220096398A1, “COMPLEXES AND COMPOSITIONS COMPRISING PROBUCOL AND USES THEREOF” (MACQUARIE UNIVERSITY, priority 2019, published 2022).
